The numbers were not newly measured in patent publication US20210220286A1, “PHARMACEUTICAL COMPOSITION COMPRISING AMORPHOUS SUNITINIB” (SYNTHON B.V., priority 2018, published 2021), which cites them from elsewhere.

The conditions of this series: WO03016305, cited from earlier work; for stability of polymorphic form: ambient conditions.

For `CCN(CC)CCNC(=O)c1c(C)[nH]c(/C=C2\C(=O)Nc3ccc(F)cc32)c1C` [Form II, sunitinib L-malate], the “stability of polymorphic form” value is on record as “less stable” and the “hygroscopicity of polymorphic form” value is “hygroscopic”. Also, the “solubility of polymorphic form” value (compared with form I) was “more soluble”.

Turning to `CCN(CC)CCNC(=O)c1c(C)[nH]c(/C=C2\C(=O)Nc3ccc(F)cc32)c1C` [Form I, sunitinib L-malate], the “stability of polymorphic form” value is on record as “most stable form”.
